Read-outs that look alike come from different tables or passages of the source.
Assays:
[1] = tested on: CaCo-2 (Human colorectal cancer cells); conditions: cited from earlier work; for Doubling Time: 72 hrs
[2] = cited from earlier work
[3] = during alcohol metabolism; cited from earlier work
[4] = ethanol fed animals, cited from earlier work
[5] = tissue culture at 37° C., cited from earlier work
[6] = ethanol IP 3 g/kg, +30 minutes, cited from earlier work
[7] = acetaldehyde in breath and blood after ethanol consumption; format: in vivo; conditions: suggested from breath values and partition coefficient

CC=O [acetaldehyde]
Cytotoxicity ([1]; 500 μM and 1000 μM acetaldehyde for 72 hrs): No significant effects. | Doubling Time ([1]; 500 μM): 150 % of control | Doubling Time ([1]; 1000 μM): 270 % of control | concentrations of acetaldehyde in the breath ([2]; after ethanol consumption, different patient groups): 0.005 to 1.3 µM | systemic concentrations of acetaldehyde ([2]; volunteers consuming alcohol with an hepatic ALDH inhibitor): up to 240 uM | levels in the liver [3]: ~100 µM | cellular conc ([4]; colon): about 250 μM | Acetaldehyde levels in colonic contents [4]: exceed 3 mM | ½ life [5]: about 30 minutes | ½ life ([5]; listed as Acetaldehyde): 30 min | acetaldehyde levels ([6]; ADH overexpressing heart): 70 µM | acetaldehyde levels ([6]; control heart): 15 µM | blood values [7]: 1 to 260 µM

— patent US20070166367A1, “Adept or gdept producing acetaldehyde” (priority 2004, published 2007)
